Reference: paper PMC11342128, “Gold(I) and gold(III) carbene complexes from the marine betaine norzooanemonin: inhibition of thioredoxin reductase, antiproliferative and antimicrobial activity” (RSC Medicinal Chemistry, 2024)
Several values for one entry are separate records, joined by “and”; a condition that tells them apart may be missing. Identical values can stand only once.

Key:
[1] = test system: A549 lung carcinoma cells; assay: Antiproliferative activity, crystal violet assay; assay type: cell-based; settings: 72 h exposure, SD in parentheses, n = 3
Experimental: (§1) The antiproliferative potential of the gold–NHC complexes was determined in A549 lung carcinoma cells, MDA-MB-231 breast cancer cells, MCF-7 breast adenocarcinoma cells, and HT-29 colon carcinoma cells (Table 1). Vero E6 African green monkey kidney cells served as a reference cell line to check for possible tumour selectivity. Auranofin (AF) was used as an established reference drug.[15,17] […]
(§2) S2.2. Cytotoxicity and Anticancer Studies
(§3) Cell culture and cytotoxicity
(§4) Cell lines were sourced from DSMZ (German Collection of Microorganisms and Cell Cultures GmbH) and maintained through standard procedures in Dulbecco's Modified Eagle Medium (DMEM) supplemented with 10% fetal calf serum and 50 mg/L gentamycin. Antiproliferative effects were assessed using a well-established assay protocol. In brief, 100 μL volumes of A549 cells (13,243 cells per mL), HT-29 cells (14,657 cells per mL), MDA-MB-231 cells (6,613 cells per mL), or MCF-7 cells (6,917 cells per mL) were transferred into the wells of 96-well plates and incubated at 37°C/5% CO2 for 72 […]
(§5) Freshly prepared stock solutions of the compounds in DMSO were diluted with the respective cell culture medium to achieve graded concentrations (final concentration of DMSO: 0.1% v/v). After 72 hours (A549, HT-29) or 96 hours (MCF-7, MDA-MB-231) of exposure, the cell biomass was assessed through crystal violet staining, and the IC50 value was determined as the concentration causing 50% inhibition of cell proliferation compared to an untreated control. Results were calculated as the mean values of three independent experiments.

[2] = test system: HT-29 colon carcinoma cells; assay: Antiproliferative activity, crystal violet assay; assay type: cell-based; settings: 72 h exposure, SD in parentheses, n = 3
Experimental: as §1, §2, §3, §4, §5

[3] = test system: MCF-7 breast adenocarcinoma cells; assay: Antiproliferative activity, crystal violet assay; assay type: cell-based; settings: 96 h exposure, SD in parentheses, n = 3
Experimental: as §1, §2, §3, §4, §5

[4] = test system: MDA-MB-231 breast cancer cells; assay: Antiproliferative activity, crystal violet assay; assay type: cell-based; settings: 96 h exposure, SD in parentheses, n = 3
Experimental: as §1, §2, §3, §4, §5

[5] = test system: Acinetobacter baumannii DSM30007; assay: Antibacterial activity (MIC, curve fitting); assay type: cell-based; settings: for MIC, A.b.: Table 2, Acinetobacter baumannii DSM30007, 18 h, 37 °C; for MIC, A. baumannii: Table S12, ± standard error of the mean
Experimental: (§6) The antibacterial activity of all gold complexes was assessed against six pathogenic bacterial strains, including two Gram-positive species, i.e. Enterococcus faecium and methicillin-resistant Staphylococcus aureus (MRSA), and four Gram-negative species, i.e. Acinetobacter baumannii, Escherichia coli, Klebsiella pneumoniae, and Pseudomonas aeruginosa. Minimum inhibitory concentrations (MICs) were determined using a curve-fitting technique.
(§7) S2.1. Antibacterial Studies
(§8) Bacterial cultures were prepared by overnight aerobic incubation at 37 °C. Gram-negative strains were cultivated in Müller Hinton broth supplemented with 1% glucose at pH 7.2, while Gram-positive strains were grown in Trypticase soy yeast extract medium (TSY) with a composition of 30 g/l trypticase soy broth, 3 g/l yeast extract, and pH 7.2. The cultures were adjusted to an OD600 of 0.001, resulting in a final starting OD600 of 0.0005 for the subsequent tests. For testing, 25 μL of the prepared culture was combined with 25 μL of serially diluted test compounds in 384 well plates, following established protocols for different strains. Screening was performed at compound concentrations of 0.5, 5, and 50 µM, and for selected compounds, growth inhibition curves were recorded using DMSO stock solutions […]
(§9) Positive control compounds, namely linezolid (for MRSA strains), ciprofloxacin (for E. faecium and E. coli), and amikacin (for P. aeruginosa), were included. The maximum DMSO concentration in the assay […]
(§10) After an 18-hour incubation at 37 °C under moist conditions, the optical density at 600 nm was measured using a Fusion Universal Microplate Analyser (Perkin–Elmer, Waltham, USA). The minimum inhibitory concentration (MIC) values, representing the […]
(§11) fitting with Sigma Plot. The bacterial strains used included Gram-negative strains: Escherichia coli (DSM 1116), A. baumannii (DSM30007), K. pneumoniae (DSM111678), and Pseudomonas aeruginosa PA7 (DSM 24068); and Gram-positive strains: E. faecium (DSM20477) and Staphylococcus aureus MRSA

[6] = test system: Enterococcus faecium DSM20477; assay: Antibacterial activity (MIC, curve fitting); assay type: cell-based; settings: for MIC, E.f.: Table 2, Enterococcus faecium DSM20477, 18 h, 37 °C; for MIC, E. faecium: Table S12, ± standard error of the mean
Experimental: as §6, §7, §8, §9, §10, §11

[7] = test system: Escherichia coli DSM 1116; assay: Antibacterial activity (MIC, curve fitting); assay type: cell-based; settings: for MIC, E.c.: Table 2, Escherichia coli DSM 1116, 18 h, 37 °C; for MIC, E. coli: Table S12, ± standard error of the mean
Experimental: as §6, §7, §8, §9, §10, §11

[8] = test system: Klebsiella pneumoniae DSM111678; assay: Antibacterial activity (MIC, curve fitting); assay type: cell-based; settings: for MIC, K.p.: Table 2, Klebsiella pneumoniae DSM111678, 18 h, 37 °C; for MIC, K. pneumoniae: Table S12, ± standard error of the mean
Experimental: as §6, §7, §8, §9, §10, §11

[9] = test system: Pseudomonas aeruginosa DSM 24068; assay: Antibacterial activity (MIC, curve fitting); assay type: cell-based; settings: for MIC, P.a.: Table 2, Pseudomonas aeruginosa DSM 24068, 18 h, 37 °C; for MIC, P. aeruginosa: Table S12, ± standard error of the mean
Experimental: as §6, §7, §8, §9, §10, §11

[10] = test system: methicillin-resistant Staphylococcus aureus DSM 11822; assay: Antibacterial activity (MIC, curve fitting); assay type: cell-based
Experimental: as §6, §7, §8, §9, §10, §11

TrxR from E. coli = TrxR from E. coli (Escherichia coli, UniProt P0A9P4); assay: Inhibition of isolated bacterial TrxR, DTNB-based assay; assay type: biochemical; design: purchased Sigma-Aldrich; settings: for TrxR activity, % of control: compounds at 0.5 µM, n = 2, Table S13; for IC50: isolated E. coli TrxR, DTNB assay, ± standard deviation, n = 3
TrxR from E. coli, sequence (P0A9P4 2-321): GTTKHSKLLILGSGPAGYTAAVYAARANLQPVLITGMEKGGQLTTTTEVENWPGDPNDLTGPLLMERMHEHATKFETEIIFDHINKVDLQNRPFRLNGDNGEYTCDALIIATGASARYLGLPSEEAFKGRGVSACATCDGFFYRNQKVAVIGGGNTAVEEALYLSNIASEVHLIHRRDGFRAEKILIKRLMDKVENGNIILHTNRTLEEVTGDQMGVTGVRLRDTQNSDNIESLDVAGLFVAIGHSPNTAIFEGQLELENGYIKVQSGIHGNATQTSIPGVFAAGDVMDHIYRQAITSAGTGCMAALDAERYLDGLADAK
Experimental: The inhibition of isolated TrxR from E. coli was determined for the selected monocarbene gold(I/III) complexes 2a–c and 4b–c using a DTNB-based assay (Table 3). […] The inhibition of bacterial TrxR for compound 2a was investigated in our previous report (Table 3).
S2.3. Inhibition of bacterial TrxR from E. coli
The TrxR (E. coli) inhibition assay was performed according to previously published procedures.[8] The assay is partly based on the procedure developed by Lu et al[9] and makes use of the reduction of DTNB (5,5′-dithiobis-(2-nitrobenzoic acid)). Solutions of E. coli TrxR (10.1 U/mL) and E. coli thioredoxin (Trx) (312 μg/mL) (both purchased from Sigma-Aldrich) were prepared in distilled water. Stock solutions of the test compounds (2 mM) were prepared in DMSO and serially diluted with TE buffer (Tris-HCl 50 mM, EDTA 1 mM, pH 7.5). 20 μL of these solutions or TE buffer without the test compounds (positive control) were mixed with the TrxR solution (10 μL), the Trx solution (10 μL) and 100 µl of NADPH (200 μM) in TE buffer in a well on a 96-well plate. As a blank control, 200 μM NADPH in TE buffer (100 μL) mixed with a DMSO / buffer mixture (40 μL) was used (final concentrations of DMSO: 0.5% v/v). The plate was incubated for 75 min at 25°C with moderate shaking. After incubation, 100 μL of a reaction mixture (TE buffer containing 200 μM NADPH and 5 mM DTNB) was added to each well to initiate the reaction. After thorough mixing, the formation of 5-TNB was monitored by a microplate reader at 405 nm in 35 s intervals (10 measurements). The values were corrected by subtraction of the blank solution absorption values. The increase in concentration of 5-TNB followed a linear trend (r2≥ 0.990) and the enzymatic activities were calculated as the gradients (increase in absorbance per second) thereof. […]
for each test compound, where the highest test compound concentration was used and the enzyme solution was replaced by TE buffer. The inhibition is presented as the mean IC50 values and standard deviations obtained in three independent experiments.
Table S13. Activity of TrxR from E. coli in presence of compounds at 0.5 µM (n = 2, n.d.= not

[11] = test system: Vero E6 African green monkey kidney cells; assay: Antiproliferative activity in non-tumour reference cell line; assay type: cell-based; settings: for IC50: Vero E6 non-tumour reference cell line, SD in parentheses, n = 3; for Tumour selectivity: tumour cell lines in comparison to Vero E6: comparison of IC50 in tumour cell lines and non-tumour Vero E6
Experimental: as §1, §2, §3, §4, §5

[12] = Table 2, MRSA DSM 11822, 18 h, 37 °C
[13] = Table S12, ± standard error of the mean

Structure (SMILES) | IC50 [1] [µM] | IC50 [2] [µM] | IC50 [3] [µM] | IC50 [4] [µM] | MIC, A.b. [5] | MIC, A. baumannii [5] [µM] | MIC, E.f. [6] | MIC, E. faecium [6] [µM] | MIC, E.c. [7] | MIC, E. coli [7] [µM] | MIC, K.p. [8] | MIC, K. pneumoniae [8] [µM] | MIC, P.a. [9] [µM] | MIC, P. aeruginosa [9] [µM] | MIC, MRSA [10, 12] | MIC, MRSA [10, 13] [µM] | TrxR activity, % of control (TrxR from E. coli) | IC50 (TrxR from E. coli) [µM] | IC50 [11] [µM] | Tumour selectivity: tumour cell lines in comparison to Vero E6 [11]
COC(=O)c1cn(C)[c]([Au-][Cl])[n+]1C [2b] | 22.7 | 19.8 | 23.8 | 12.8 | 10 µM and 10 ± 0 µM | 10.35 ± 0 | 10 µM and 10 ± 0 µM | 10.35 ± 0 | 41 µM and 41 ± 0 µM | 41.39 ± 0 | 41 µM and 41 ± 0 µM | 41.39 ± 0 | >100 | > 100 | 10 µM and 10 ± 0 µM | 10.35 ± 0 | 8.9 % of control | 0.293 ± 0.163 | – | –
CCOC(=O)c1cn(C)[c]([Au-][Cl])[n+]1C [2c] | 10.4 | 22.1 | 9.93 | 8.9 | 10 µM and 10 ± 2 µM | 9.98 ± 2.07 | 10 µM and 10 ± 0 µM | 9.98 ± 0 | 40 µM and 40 ± 0 µM | 39.94 ± 0 | 40 µM and 40 ± 0 µM | 39.94 ± 0 | >100 | > 100 | 10 µM and 10 ± 0 µM | 9.98 ± 0 | 13.8 % of control | 0.133 ± 0.044 | 13.1 | –
Cn1cc(C(=O)O)[n+](C)[c]1[Au-][c]1n(C)cc(C(=O)O)[n+]1C.[Cl-] [3a] | – | – | – | – | – | 31.2 ± 4.90 | – | > 100 | – | 62.4 ± 0 | – | 62.4 ± 0 | – | 62.4 ± 0 | – | > 100 | – | – | – | –
COC(=O)c1cn(C)[c]([Au-][c]2n(C)cc(C(=O)OC)[n+]2C)[n+]1C.O=S(=O)([O-])C(F)(F)F [3b] | 5.21 | 27.7 | 34.4 | 19.2 | – | > 100 | – | > 100 | – | > 100 | – | > 100 | – | > 100 | – | > 100 | 106 % of control | – | > 100 | clear preference for the tumour cell lines
CCOC(=O)c1cn(C)[c]([Au-][c]2n(C)cc(C(=O)OCC)[n+]2C)[n+]1C.F[B-](F)(F)F [3c] | 1.07 | 5.78 | 4.64 | 2.51 | – | > 100 | – | > 100 | – | > 100 | – | > 100 | – | > 100 | – | 25.79 ± 0 | 115 % of control | – | 31.5 | clear preference for the tumour cell lines
Cn1cc(C(=O)O)[n+](C)[c]1[Au-]([Cl])([Cl])[Cl] [4a] | 36.1 | > 90 | 47.8 | 31.8 | 36 ± 3 µM | 36.08 ± 2.83 | >100 µM | > 100 | 72 ± 0 µM | 72.16 ± 0 | 36 ± 6 µM | 36.08 ± 5.67 | >100 | > 100 | >100 µM | > 100 | 86.1 % of control | – | 42.4 | –
